In a melting point compilation (Tetko et al.; mined from patent text by program, amines drawn as free bases though some values may be those of a salt):

Compound `N#Cc1nn(-c2c(Cl)cc(C(F)(F)F)cc2Cl)cc1C1(C(F)(F)C(F)(F)C(F)(F)F)CC1` has a melting point of 95 to 96 °C.
With `O=C(O)COc1cccc(-c2ccc(Cl)c(C(=O)NCC34CC5CC(CC(C5)C3)C4)c2)c1` the melting point was 99 to 101 °C.
In the case of `O=S(=O)(CCl)c1cccc2ccccc12`, the melting point is reported as 103 to 105 °C.
Compound `CCc1cn(C2CC(O)C(CNC(=O)c3ccc4ccccc4c3)O2)c(=O)[nH]c1=O` (stereo not given) has a melting point of 242 to 244 °C.
Work on `CCCCn1c(=O)c2ncn(C)c2c2cccnc21` yielded a melting point of 198 to 202 °C.
Compound `Cc1cc(Cn2c(-c3ccccc3)nc(Cl)c2C=O)ccc1OCc1ccccc1` has a melting point of 135 to 136 °C.
For `CCCc1nc2c(N)nc(C)c(C)c2n1CCCCCS(=O)(=O)c1ccccn1`, the melting point was 143 to 144 °C.
Work on `Cc1cc(-c2cccs2)nc(Nc2ccc(C(C)C)cc2Br)n1` yielded a melting point of 98 to 101 °C.
Work on `CCCCOc1c(-c2ccnc3ccc(C(C)=O)cc23)cc(C(C)C)cc1C(C)C` yielded a melting point of 133 °C.
With `Cn1nc(-c2ccccc2C(F)(F)F)nc1-c1ccccc1C(F)(F)F` the melting point was 108 to 111 °C.
Work on `Cc1cc(C)nc(NC(=O)NS(=O)(=O)c2cccn2CCC#N)n1` yielded a melting point of 158 to 159 °C.
For `CSc1ccc(NC2=C(C#N)CSC2)c([N+](=O)[O-])c1`, the melting point was 141 to 142 °C.
With `Cc1nc(-c2ccncn2)cc(=O)[nH]1` the melting point was 320 to 322 °C.
`Cc1[nH]c(C(=O)N2CCC(C(=O)NCCCN(C)C)CC2)c(C)c1-c1nc2ccc(C(=O)c3ccccc3)cc2[nH]1` showed a melting point of 247 to 251 °C.
For `Cc1c(N2CCC(N)C2)c(F)cc2c(=O)c(C(=O)O)cn(C3CC3)c12` (stereo not given), the melting point was 187 to 190 °C.
`C=CCN1CCN(c2nc3cccccc-3n2)CC1` showed a melting point of 108 to 111 °C.
With `O=C1NCC(COc2cccc3c2SCCC3)O1` (stereo not given) the melting point was 152 to 153 °C.
Work on `Cc1noc(NC(=O)N2CCN(c3ccnc(-c4cccc(F)c4F)n3)CC2)c1C` yielded a melting point of 209 to 210 °C.
`CCCCCCOc1c(OC)cc(N)c2nccc(C)c12` showed a melting point of 69 to 71 °C.
Work on `CCCCCS(=O)(=O)NC(=O)c1ccc2nc(C)n(Cc3ccc(N(C)CC)cc3Cl)c2n1` yielded a melting point of 148 to 149 °C.
Compound `CC1(C)COC(=S)N(Cc2ccccc2N)C1` has a melting point of 90.8 to 92.1 °C.
Work on `Cc1c(C)c2c(c(C)c1NC=O)CC(C)(CBr)O2` (stereo not given) yielded a melting point of 157 to 158 °C.
Compound `CC(C)(C)OC(=O)CCCCCCCCCC[N+](=O)[O-]` has a melting point of 39 to 42 °C.
`CCc1nnc2nc(-c3cccc(C(F)(F)F)c3)ccn12` gave a melting point of 223 to 224 °C.
For `C[C@H](C(=O)O)c1ccc2cc(OCCCCCCc3ccc(O)c(O)c3)ccc2c1`, the melting point was 103 to 106 °C.
`COC(C)C(=O)Nc1ccc(C2=NNC(=O)CC2)cc1` (stereo not given) showed a melting point of 245 to 247 °C.
With `CS(=O)(=O)Nc1cc2c(cc1Oc1ccc(F)cc1F)C(O)CC2` (stereo not given) the melting point was 119 °C.
For `CC(Cl)(Cl)C(NC(=O)c1cccc(Cl)c1)NC(=NC#N)Nc1ccccc1F` (stereo not given), the melting point was 136 to 138 °C.
`Oc1ccccc1OCC(F)(F)F` showed a melting point of 49 to 50 °C.
Compound `Cc1cc2ccccn2c1C(=O)C1CCc2nc[nH]c2C1` (stereo not given) has a melting point of 260 to 264 °C.
`Clc1ccc(C(CCC2CCCC2)Cn2cncn2)c(Cl)c1` (stereo not given) gave a melting point of 71 °C.
`COc1ccccc1C1(CC(=O)O)C(=O)Nc2ccc(Cl)cc21` (stereo not given) gave a melting point of 135 to 139 °C.
Work on `Cc1nc(NC(=O)c2ccccc2)sc1C(=O)NCc1cccc(Cl)c1` yielded a melting point of 198 to 199 °C.
Work on `CN1CC(=O)N(C)C1=NC(=O)Nc1cccc(Cl)c1` yielded a melting point of 134 to 137 °C.
Compound `Oc1ccc(Cc2noc3cc(O)ccc23)cc1` has a melting point of 178 °C.
`CC(C)OC(=O)C1=C(c2cn(C)c3ccccc23)C(=O)NC1=O` gave a melting point of 199 to 202 °C.
For `CC(C)c1cccc(C(C)C)c1NC(=O)C(Br)c1ccccc1` (stereo not given), the melting point was 207 to 210 °C.
Compound `CCCCc1ncc(CC(Cc2ccccc2)C(=O)O)n1Cc1ccccc1` (stereo not given) has a melting point of 148 to 150 °C.
For `Cc1cccc(Nc2ccccc2-c2n[nH]c(=O)o2)c1C`, the melting point was 239 to 241 °C.
For `Cc1ccc(C(=O)N[C@H](C)C(N)=O)cc1-n1c(C)cc(OCc2ccccc2CNC(=O)Nc2cc(C(C)(C)C)nn2-c2ccc(O)c(Cl)c2)c(Cl)c1=O`, the melting point was 192 to 193 °C.
